Data as given in patent publication US8399462B2, “JNK modulators” (Roche Palo Alto LLC, priority 2006, dated 2013).
Where “and” joins values, the source holds several entries; their conditions need not be identical. Identical values can stand only once.

Row | melting point | Structure (SMILES)
1 | 225 to 226 °C | CS(=O)(=O)CCCOc1cccc2c(-c3ccnc(N[C@H]4CC[C@H](NS(C)(=O)=O)CC4)n3)noc12 [Compound 306, N-(4-{4-[7-(3-methane-sulfonyl-propoxy)-benzo[d]isoxazol-3-yl]-pyrimidin-2-ylamino}-cyclohexyl)-methane-sulfonamide]
2 | 186 to 187 °C | CS(=O)(=O)CCCOc1cccc2c(-c3ccnc(N[C@H]4CC[C@H](C(=O)N5CCC(O)CC5)CC4)n3)noc12 [Compound 307, (4-hydroxy-piperidin-1-yl)-(4-{4-[7-(3-methane-sulfonyl-propoxy)-benzo[d]isoxazol-3-yl]-pyrimidin-2-ylamino}-cyclohexyl)-methanone]
3 | 224 to 225 °C | CS(=O)(=O)CCCOc1cccc2c(-c3ccnc(N[C@H]4CC[C@H](C(=O)N5CC[C@@H](O)C5)CC4)n3)noc12 [Compound 309, (3-hydroxy-pyrrolidin-1-yl)-(4-{4-[7-(3-methane-sulfonyl-propoxy)-benzo[d]isoxazol-3-yl]-pyrimidin-2-ylamino}-cyclohexyl)-methanone]
4 | 213.5 to 214.2 °C | CN([C@H]1CC[C@H](Nc2nccc(-c3noc4c(OCCCS(C)(=O)=O)cccc34)n2)CC1)S(C)(=O)=O [Compound 310, N-(4-{4-[7-(3-methane-sulfonyl-propoxy)-benzo[d]isoxazol-3-yl]-pyrimidin-2-ylamino}-cyclohexyl)-N-methyl-methanesulfonamide]
5 | 190.1 to 200.5 °C | CS(=O)(=O)N[C@H]1CC[C@H](Nc2nccc(-n3ccc4c(N5CCC(O)C5)cccc43)n2)CC1 (stereo partly drawn) [Compound 312, N-(4-{4-[4-(3-hydroxy-pyrrolidin-1-yl)-indol-1-yl]-pyrimidin-2-yl-amino}-cyclohexyl)-methanesulfonamide]
6 | 139.6 to 150.3 °C | CS(=O)(=O)CCCOc1cccc2c1ccn2-c1ccnc(N[C@H]2CC[C@H](CN3CC[C@@H](O)C3)CC2)n1 [Compound 317, 1-(4-{4-[4-(3-methanesulfonyl-propoxy)-indol-1-yl]-pyirmidin-2-ylamino}-cyclohexylmethyl)-pyrrolidin-3-ol]
7 | 145 to 148 °C | CCOC(=O)[C@H]1CC[C@H](Nc2nccc(-n3ccc4c(OCCCS(N)(=O)=O)cccc43)n2)CC1 [Compound 318, 4-{4-[4-(3-sulfamoyl-propoxy)-indol-1-yl]-pyrimidin-2-ylamino}-cyclohexanecarboxylic acid ethyl ester]
8 | 244.5 to 248.8 °C | CC(=O)N1CCN(c2cccc3c2ccn3-c2ccnc(N[C@H]3CC[C@H](N(CCO)S(C)(=O)=O)CC3)n2)CC1 [Compound 320, N-(4-{4-[4-(4-acetyl-piperazin-1-yl)-indol-1-yl]-pyrimidin-2-ylamino}-cyclohexyl)-N-(2-hydroxy-ethyl)-methanesulfonamide]
9 | 246.6 to 248.2 °C | CN(C1CCC(Nc2nccc(-n3cc(S(N)(=O)=O)c4ccccc43)n2)CC1)S(C)(=O)=O (stereo not drawn) [Compound 321, 1-{2-[4-(methanesulfonyl-methyl-amino)-cyclohexylamino]-pyrimdin-4-yl}-1H-indole-3-sulfonic acid amide]
10 | 265.5 to 270 °C | O[C@H]1CC[C@H](Nc2nccc(-c3n[nH]c4c(C(F)(F)F)cccc34)n2)CC1 [Example 3, trans-4-[4-(7-Trifluoromethyl-1H-indazol-3-yl)-pyrimidin-2-yl-amino]-cyclohexanol]

Second part, the molecule before the results:

Row | Structure (SMILES) | melting point
11 | COc1cccc2c1c(C(N)=O)cn2-c1ccnc(N[C@H]2CC[C@H](C(=O)N3CCC(O)CC3)CC2)n1 [Compound 282, 1-{2-[4-(4-hydroxy-piperidine-1-carbonyl)-cyclohexylamino]-pyrimidin-4-yl}-4-methoxy-1H-indole-3-carboxylic acid amide] | 278 to 280 °C
12 | COc1cccc2c1c(C(N)=O)cn2-c1ccnc(N[C@H]2CC[C@H](N(C)S(C)(=O)=O)CC2)n1 [Compound 283, 1-{2-[4-(methane-sulfonyl-methylamino)-cyclohexylamino]-pyrimidin-4-yl}-4-methoxy-1H-indole-3-carboxylic acid amide] | 285 to 287 °C
13 | COC(=O)CCCOc1cccc2c1ccn2-c1ccnc(N[C@H]2CC[C@H](N(C)S(C)(=O)=O)CC2)n1 [Compound 284, 4-(1-{2-[4-(methane-sulfonyl-methylamino)-cyclohexylamino]-pyrimidin-4-yl}-1H-indol-4-yloxy)-butyric acid methyl ester] | 145 to 146 °C
14 | CS(=O)(=O)CCCOc1cccc2c1ccn2-c1ccnc(N[C@H]2CC[C@H](CCl)CC2)n1 [Compound 285, (4-chloromethyl-cyclo-hexyl)-{4-[4-(3-methane-sulfonyl-propoxy)-indol-1-yl]-pyrimidin-2-yl}-amine] | 152 to 155 °C
15 | CN(C)C1CCN(C(=O)[C@H]2CC[C@H](Nc3nccc(-n4ccc5c(OCCCC(F)(F)F)cccc54)n3)CC2)CC1 [Compound 286, (4-dimethylamino-piperidin-1-yl)-(4-{4-[4-(4,4,4-trifluorobutoxy)-indol-1-yl]-pyrimidin-2-ylamino}-cyclohexyl)-methanone] | 179 to 180 °C
16 | O=C([C@H]1CC[C@H](Nc2nccc(-n3ccc4c(OCC(O)CC(F)(F)F)cccc43)n2)CC1)N1CCC(O)CC1 (stereo partly drawn) [Compound 288] | 215 to 215.5 °C
17 | CS(=O)(=O)CCCOc1cccc2c1ccn2-c1ccnc(N[C@H]2CC[C@H](C(=O)N3CCCC(O)C3)CC2)n1 (stereo partly drawn) [Compound 291, (3-hydroxy-piperidin-1-yl)-(4-{4-[4-(3-methane-sulfonyl-propoxy)-indol-1-yl]-pyrimidin-2-ylamino}-cyclohexyl)-methanone] | 167.3 to 170.5 °C
18 | CC1(O)CCN(C(=O)[C@H]2CC[C@H](Nc3nccc(-n4ccc5c(OCCCS(C)(=O)=O)cccc54)n3)CC2)CC1 [Compound 292, (4-hydroxy-4-methyl-piperidin-1-yl)-(4-{4-[4-(3-methanesulfonyl-propoxy)-indol-1-yl]-pyrimidin-2-ylamino}-cyclohexyl)-methanone] | 132.6 to 137.7 °C
19 | CNC1CCN(C(=O)[C@H]2CC[C@H](Nc3nccc(-n4ccc5c(OCCCS(C)(=O)=O)cccc54)n3)CC2)CC1 [Compound 293, (4-{4-[4-(3-methane-sulfonyl-propoxy)-indol-1-yl]-pyrimidin-2-ylamino}-cyclohexyl)-(4-methylamino-piperidin-1-yl)-methanone] | 187.5 to 189.1 °C
20 | CS(=O)(=O)CCCOc1cccc2c1ccn2-c1ccnc(N[C@H]2CC[C@H](NS(=O)(=O)c3cccs3)CC2)n1 [Compound 294, Thiophene-2-sulfonic-acid (4-{4-[4-(3-methane-sulfonyl-propoxy)-indol-1-yl]-pyrimidin-2-ylamino}-cyclohexyl)-amide] | 226 to 227 °C
21 | CN(C)C1CCN(C(=O)[C@H]2CC[C@H](Nc3nccc(-n4cc(C(N)=O)c5ccccc54)n3)CC2)CC1 [Compound 295, 1-{2-[4-(4-dimethylamino-piperidine-1-carbonyl)-cyclohexylamino]-pyrimidin-4-yl}-1H-indole-3-carboxylic acid amide] | 219 to 221 °C
22 | CS(=O)(=O)CCCOc1cccc2c1ccn2-c1ccnc(N[C@H]2CC[C@H](C(=O)N3CCC(S(C)(=O)=O)CC3)CC2)n1 [Compound 297, (4-methanesulfonyl-piperidin-1-yl)-(4-{4-[4-(3-methanesulfonyl-propoxy)-indol-1-yl]-pyrimidin-2-ylamino}-cyclohexyl)-methanone] | 215 to 219 °C
23 | CSC[C@H]1CC[C@H](Nc2nccc(-n3ccc4c(OCCCS(C)(=O)=O)cccc43)n2)CC1 [Compound 298, {4-[4-(3-methane-sulfonyl-propoxy)-indol-1-yl]-pyrimidin-2-yl}-(4-methylsulfanylmethyl-cyclohexyl)-amine] | 158.7 to 159.6 °C
24 | NS(=O)(=O)CCCOc1cccc2c1ccn2-c1ccnc(N[C@H]2CC[C@H](C(=O)N3CCC3)CC2)n1 [Compound 299, 3-(1-{2-[4-(azetidin-1-carbonyl)-cyclohexyl-amino]-pyrimidin-4-yl}-1H-indol-4-yloxy)-propane-1-sulfonic acid amide] | 218.4 to 220.9 °C
25 | CN(C)C1CCN(C(=O)[C@H]2CC[C@H](Nc3nccc(-n4ccc5c(OCCCS(N)(=O)=O)cccc54)n3)CC2)CC1 [Compound 300, 3-(1-{2-[4-(4-dimethyl-amino-piperidine-1-carbonyl)-cyclohexyl-amino]-pyrimidin-4-yl}-1H-indol-4-yloxy)-propane-1-sulfonic acid amide] | 135.7 to 142.7 °C
26 | CS(=O)(=O)CCCOc1cccc2c1ccn2-c1ccnc(N[C@H]2CC[C@H](C(=O)N3CCC(NC4CC4)CC3)CC2)n1 [Compound 302, (4-cyclopropylamino-piperidin-1-yl)-(4-{4-[4-(3-methanesulfonyl-propoxy)-indol-1-yl]-pyrimidin-2-ylamino}-cyclohexyl)-methanone] | 196.3 to 197.9 °C
27 | CCNC(=O)[C@H]1CC[C@H](Nc2nccc(-n3ccc4c(OCCCS(=O)(=O)NC)cccc43)n2)CC1 [Compound 303, 4-{4-[4-(3-methane-sulfamoyl-propoxy)-indol-1-yl]-pyrimidin-2-ylamino}-cyclohexane-carboxylic acid ethyl-amide] | 201.7 to 203.2 °C
28 | CS(=O)(=O)CCCOc1cccc2c1ccn2-c1ccnc(N[C@H]2CC[C@H](C(=O)N3CCC(CN)CC3)CC2)n1 [Compound 304, (4-aminomethyl-piperidin-1-yl)-(4-{4-[4-(3-methanesulfonyl-propoxy)-indol-1-yl]-pyrimidin-2-ylamino}-cyclohexyl)-methanone] | 124.1 to 126.1 °C and 124 to 126 °C
29 | CS(=O)(=O)CCCOc1cccc2c1ccn2-c1ccnc(N[C@H]2CC[C@H](N3CCCS3(=O)=O)CC2)n1 [Compound 305, [4-(1,1-dioxo-isothiazolidin-2-yl)-cyclohexyl]-{4-[4-(3-methane-sulfonyl-propoxy)-indol-1-yl]-pyrimidin-2-yl}-amine] | 164.1 to 172.5 °C
30 | CS(=O)(=O)N[C@H]1CC[C@H](Nc2nccc(-n3ccc4c(OCC(O)CC(F)(F)F)cccc43)n2)CC1 (stereo partly drawn) [Compound 314, N-(4-{4-[4-(4,4,4-trifluoro-2-hydroxy-butoxy)-indol-1-yl]-pyrimidin-2-ylamino}-cyclohexyl)-methanesulfonamide] | 220.7 to 221.5 °C
